In ChEMBL document CHEMBL4680112, “Synthesis and Structure-Activity Relationships of Inhibitors That Target the C-Terminal MEEVD on Heat Shock Protein 90” (ACS Med Chem Lett, 2018):
Activity calls are given as the source filed them. No cut-off for these calls is given here. Non-standard residues stand in square brackets, D forms with d. Residues, ends and D or L forms follow the SMILES beside them.

Biological target: T1, Heat shock protein HSP 90-beta (Homo sapiens, UniProt P08238)
Assay: Inhibition of C-terminal HSP90beta (527 to 724 residues) (unknown origin) interaction with CYP40 measured after 30 mins by Alphascreen assay
Details: not given

T1 sequence (P08238 whole entry, the tested form may be a part): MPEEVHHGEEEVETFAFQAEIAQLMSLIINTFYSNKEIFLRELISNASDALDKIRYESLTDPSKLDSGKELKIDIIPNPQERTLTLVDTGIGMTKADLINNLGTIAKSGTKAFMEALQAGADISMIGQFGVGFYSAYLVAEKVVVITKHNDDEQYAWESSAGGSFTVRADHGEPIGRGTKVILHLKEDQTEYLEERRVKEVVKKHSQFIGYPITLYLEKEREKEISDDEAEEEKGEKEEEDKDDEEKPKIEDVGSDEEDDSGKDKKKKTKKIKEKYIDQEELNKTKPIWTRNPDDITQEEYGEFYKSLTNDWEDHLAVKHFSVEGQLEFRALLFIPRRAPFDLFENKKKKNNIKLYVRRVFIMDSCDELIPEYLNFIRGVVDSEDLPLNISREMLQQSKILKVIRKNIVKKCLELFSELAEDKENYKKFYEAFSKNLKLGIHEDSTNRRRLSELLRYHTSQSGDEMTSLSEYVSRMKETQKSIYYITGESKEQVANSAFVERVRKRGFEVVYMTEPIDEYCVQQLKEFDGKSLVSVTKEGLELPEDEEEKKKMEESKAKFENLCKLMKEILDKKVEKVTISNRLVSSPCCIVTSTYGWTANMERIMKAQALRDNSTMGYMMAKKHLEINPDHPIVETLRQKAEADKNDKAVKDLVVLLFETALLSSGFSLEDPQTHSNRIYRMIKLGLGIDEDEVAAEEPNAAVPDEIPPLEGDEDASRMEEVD

| SMILES | IC50 [µM] |
| --- | --- |
| CC[C@H](C)[C@H](NC(=O)[C@H](CCCNC(=N)N)NC(=O)[C@H](C)NC(=O)[C@H](Cc1ccc(O)cc1)NC(=O)[C@H](C)NC(=O)[C@@H](N)CCCCN)C(=O)NCC(=O)N[C@@H](CC(N)=O)C(=O)N[C@@H](CO)C(=O)N[C@@H](Cc1ccc(O)cc1)C(=O)N[C@@H](Cc1ccccc1)C(=O)N[C@@H](CCCCN)C(=O)O | 50 |

Biological target: T1, Heat shock protein HSP 90-beta
Assay: Potency index, ratio of Kawakami-peptide IC50 to LB51 IC50 C-terminal HSP90beta (527 to 724 residues) (unknown origin) interaction with CYP40 measured after 30 mins by Alphascreen assay
Details: not given

| SMILES | Ratio IC50 |
| --- | --- |
| NCCCC[C@@H]1NC(=O)[C@H](Cc2ccccc2)NC(=O)[C@H](Cc2ccc(O)cc2)NC(=O)[C@H](CO)NC(=O)[C@H](CC(N)=O)NC1=O (cyclo(KNSYF)) | > 10 |

Biological target: T1, Heat shock protein HSP 90-beta
Assay: Inhibition of C-terminal HSP90beta (527 to 724 residues) (unknown origin) interaction with CYP40 at 1 to 25 uM measured after 30 mins by AlphaLISA assay
Details: dose 1-25 µM

| SMILES | inhibition |
| --- | --- |
| NCCCC[C@@H]1NC(=O)[C@H](Cc2ccccc2)NC(=O)[C@H](Cc2ccc(O)cc2)NC(=O)[C@H](CO)NC(=O)[C@H](Cc2ccccc2)NC1=O (cyclo(FKFSY)) | Active |
| NCCCC[C@@H]1NC(=O)[C@H](Cc2ccccc2)NC(=O)[C@H](Cc2ccc(O)cc2)NC(=O)[C@H](CO)NC(=O)[C@H](CC(=O)O)NC1=O (cyclo(DSYFK)) | inactive |
| C[C@H]1NC(=O)[C@H](CCCCN)NC(=O)[C@H](Cc2ccccc2)NC(=O)[C@H](Cc2ccc(O)cc2)NC(=O)[C@H](CO)NC1=O | inactive |
| NCCCC[C@@H]1NC(=O)[C@@H](Cc2ccccc2)NC(=O)[C@H](Cc2ccc(O)cc2)NC(=O)[C@H](CO)NC(=O)[C@H](CC(N)=O)NC1=O (cyclo(KNSY[dF])) | inactive |
| NCCCC[C@@H]1NC(=O)[C@H](Cc2ccccc2)NC(=O)[C@H](Cc2ccc(O)cc2)NC(=O)[C@@H](CO)NC(=O)[C@H](CC(N)=O)NC1=O (cyclo(FKN[dS]Y)) | inactive |
| C[C@@H]1NC(=O)[C@H](CC(N)=O)NC(=O)[C@H](CCCCN)NC(=O)[C@H](Cc2ccccc2)NC(=O)[C@H](Cc2ccc(O)cc2)NC1=O (cyclo(AYFKN)) | Active |
| CC(C)C[C@@H]1NC(=O)[C@H](CCCCN)NC(=O)[C@H](Cc2ccccc2)NC(=O)[C@H](Cc2ccc(O)cc2)NC(=O)[C@H](CO)NC1=O (cyclo(FKLSY)) | inactive |
| NCCCC[C@@H]1NC(=O)[C@H](Cc2ccccc2)NC(=O)[C@H](Cc2ccc(O)cc2)NC(=O)[C@H](CO)NC(=O)[C@@H](CC(N)=O)NC1=O (cyclo(FK[dN]SY)) | inactive |
